Assay results: patent US6369088B2, “Substituted 3-phenyl-5-alkoxy-1,3,4-oxadiazol-2-ones, their preparation and their use as pharmaceuticals” (Aventis Pharma Deutschland GmbH, priority 2000, dated 2002)

melting point [°C] | Structure (SMILES)
71 | COc1nn(-c2cccc(N(Cc3ccccc3)Cc3ccccc3)c2)c(=O)o1 [Example 57, 5-Methoxy-3-(3-dibenzylaminophenyl)-3H-(1,3,4)oxadiazol-2-one]
229 | COc1nn(-c2ccc(NC(=O)NCc3cccnc3)c(C)c2)c(=O)o1 [Example 82, 5-Methoxy-3-(3-methyl-4-(pyrid-3-ylmethylaminocarbonylamino)phenyl)-3H-(1,3, 4)oxadiazol-2-one]
126 | COc1nn(-c2ccc(N)cc2Cl)c(=O)o1 [Example 63, 5-Methoxy-3-(4-amino-2-chlorophenyl)-3H-(1,3,4)oxadiazol-2-one]
127 | COc1nn(-c2ccc([N+](=O)[O-])c(F)c2)c(=O)o1
137 | COc1nn(-c2ccc(NC(=O)CCCCl)c(C)c2)c(=O)o1 [Example 35, 5-Methoxy-3-(4-(4-chlorobutanoylamino)-3-methylphenyl)-3H-(1,3,4)oxadiazol-2-one]
141 | COc1nn(-c2ccc(NC(=O)OCC(F)(F)F)c(C)c2)c(=O)o1 [Example 88, 5-Methoxy-3-(3-methyl-4-(2,2,2-trifluoroethoxycarbonylamino)phenyl)-3H-(1,3, 4)oxadiazol-2-one]
98 | CNc1ccc(-n2nc(OC)oc2=O)cc1OCc1ccc(F)cc1 [Example 55, 5-Methoxy-3-(3-(4-fluorobenzyloxy)-4-methylaminophenyl)-3H-(1,3,4)oxadiazol-2-one]
71 | COc1nn(-c2ccc(N(C)C)c(C)c2)c(=O)o1 [Example 50, 5-Methoxy-3-(4-dimethylamino-3-methylphenyl)-3H-(1,3,4)oxad iazol-2-one]
137 | COc1nn(-c2ccc([N+](=O)[O-])c(OCc3ccc(F)cc3)c2)c(=O)o1 [Example 24, 5-Methoxy-3-(3-(4-fluorobenzyloxy)-4-nitrophenyl)-3H-(1,3,4)oxadiazol-2-one]
190 | COc1nn(-c2ccc(NC(=O)Cc3ccc(Cl)cc3)c(C)c2)c(=O)o1 [Example 31, 5-Methoxy-3-(4-(4-chlorophenylacetylamino)-3-methylphenyl)-3H-(1,3,4)oxadiazol-2-one]
195 | COc1nn(-c2ccc(N)c(OCc3ccc(F)cc3)c2)c(=O)o1 [Example 29, 5-Methoxy-3-(4-amino-3-(4-fluorobenzyloxy)phenyl)-3H-(1,3,4)oxadiazol-2-one]
232 | COc1nn(-c2ccc(NC(=O)OCc3cccnc3)c(C)c2)c(=O)o1 [Example 83, 5-Methoxy-3-(3-methyl-4-(pyrid-3-ylmethoxycarbonylamino)phenyl)-3H-(1,3,4)oxadiazol-2-one]
206 | COc1nn(-c2ccc(NC(=O)NC3Cc4ccccc4C3)c(C)c2)c(=O)o1 [Example 81, 5-Methoxy-3-(3-methyl-4-(indan-2-ylaminocarbonylamino)phenyl)-3H-(1,3,4)oxadiazol-2-one]
177 | COc1nn(-c2ccc(NC(=O)OCc3ccc(Cl)cc3)cc2)c(=O)o1 [Example 70, 5-Methoxy-3-(4-(4-chlorobenzyloxycarbonylamino)phenyl)-3H-(1,3,4)oxadiazol-2-one]
133 | COc1nn(-c2ccc(Oc3ccc(Cl)cc3)c(N)c2)c(=O)o1 [Example 27, 5-Methoxy-3-(3-amino-4-(4-chlorophenoxy)phenyl)-3H-(1,3,4)oxadiazol-2-one]
114 | CCCCOC(=O)Nc1ccc(-n2nc(OC(C)C)oc2=O)cc1C [Example 76, 5-isopropoxy-3-(3-methyl-4-butyloxycarbonylaminophenyl)-3H-(1,3,4)oxadiazol-2-one]
111 | COc1nn(-c2ccc([N+](=O)[O-])cc2C)c(=O)o1 [Example 23, 5-Methoxy-3-(2-methyl-4-nitrophenyl)-3H-(1,3,4)oxadiazol-2-one]
144 | COc1nn(-c2ccc(NC(=O)c3ccc(C(C)(C)C)cc3)c(F)c2)c(=O)o1 [Example 87, 5-Methoxy-3-(3-fluoro-4-(4-tert-butylbenzoylamino)phenyl)-3H-(1,3,4)oxadiazol-2-one]
167 | COc1nn(-c2ccc(NC(=O)Cc3ccc(Cl)cc3)c(OCc3ccc(F)cc3)c2)c(=O)o1 [Example 46, 5-Methoxy-3-(4-(4-chlorophenylacetylamino)-3-(4-fluorobenzyloxy)phenyl)-3H-(1,3,4)oxadiazol-2-one]
153 | COc1nn(-c2ccc(NS(=O)(=O)Cc3ccccc3)cc2)c(=O)o1 [Example 47, 5-Methoxy-3-(4-benzylsulfonylaminophenyl)-3H-(1,3,4)oxadiazol-2-one]

melting point [°C] | Structure (SMILES)
92 | COc1nn(-c2ccc([N+](=O)[O-])cc2Cl)c(=O)o1 [Example 64, 5-Methoxy-3-(2-chloro-4-nitrophenyl)-3H-(1,3,4)oxadiazol-2-one]
154 | COc1nn(-c2ccc(NC(=O)N3CCCCC3)c(C)c2)c(=O)o1 [Example 89, 5-Methoxy-3-(3-methyl-4-piperidinocarbonylaminophenyl)-3H-(1,3,4)oxadiazol-2-one]
95 | COc1nn(-c2cccc(N)c2)c(=O)o1 [Example 56, 5-Methoxy-3-(3-aminophenyl)-3H-(1,3,4)oxadiazol-2-one]
150 | COc1nn(-c2ccc(NC(=O)OCc3ccccc3)cc2Cl)c(=O)o1 [Example 67, 5-Methoxy-3-(2-chloro-4-benzyloxycarbonylaminophenyl)-3H-(1,3,4)oxadiazol-2-one]
119 | Cc1cc(-n2nc(OC(C)C)oc2=O)ccc1NC(=O)OCc1ccccc1 [Example 75, 5-isopropoxy-3-(3-methyl-4-benzyloxycarbonylaminophenyl)-3H-(1,3,4)oxadiazol-2-one]
112 | COc1nn(-c2ccc([N+](=O)[O-])c(C)c2)c(=O)o1 [Example 20, 5-Methoxy-3-(3-methyl-4-nitrophenyl)-3H-(1,3,4)oxadiazol-2-one]
200 | COc1nn(-c2ccc(NC(=O)c3ccc(Cl)c(Cl)c3)cc2)c(=O)o1 [Example 72, 5-Methoxy-3-(4-(3,4-dichlorobenzoylamino)phenyl)-3H-(1,3,4)oxadiazol-2-one]
201 | Cc1cc(-n2nc(OC(C)C)oc2=O)ccc1NC(=O)Nc1cccc(Cl)c1 [Example 77, 5-isopropoxy-3-(3-methyl-4-(3-chlorophenylaminocarbonylamino)phenyl)-3H-(1,3,4)oxadiazol-2-one]
190 | COc1nn(-c2ccc(NS(=O)(=O)C(C)C)cc2)c(=O)o1 [Example 49, 5-Methoxy-3-(4-isopropylsulfonylaminophenyl)-3H-(1,3,4)oxadiazol-2-one]
171 | COc1nn(-c2ccc(NS(=O)(=O)c3ccccc3Cl)cc2)c(=O)o1 [Example 44, 5-Methoxy-3-(4-(2-chlorophenylsulfonylamino)phenyl)-3H-(1,3,4)oxadiazol-2-one]
145 | COc1nn(-c2ccc(NC(=O)Oc3ccccc3)c(C)c2)c(=O)o1
141 | COc1nn(-c2ccc(NS(=O)(=O)c3cccc(Cl)c3)cc2)c(=O)o1 [Example 45, 5-Methoxy-3-(4-(3-chlorophenylsulfonylamino)phenyl)-3H-(1,3,4)oxadiazol-2-one]
157 | COc1nn(-c2ccc(NC(=O)C(C)(C)C)c(C)c2)c(=O)o1 [Example 36, 5-Methoxy-3-(4-pivaloylamino-3-methylphenyl)-3H-(1,3,4)oxadiazol-2-one]
191 | COc1ccc2cc(C(=O)Nc3ccc(-n4nc(OC)oc4=O)cc3)oc2c1 [Example 90, 5-Methoxy-3-(4-(6-methoxybenzofuran-2-yl-carbonylamino)phenyl)-3H-(1,3,4)oxadiazol-2-one]
169 | COc1nn(-c2ccc(NS(=O)(=O)c3ccc(Cl)cc3)cc2)c(=O)o1 [Example 43, 5-Methoxy-3-(4-(4-chlorophenylsulfonylamino)phenyl)-3H-(1,3,4)oxadiazol-2-one]
151 | COc1nn(-c2ccc(NS(=O)(=O)CC(F)(F)F)c(C)c2)c(=O)o1 [Example 40, 5-Methoxy-3-(4-(2,2,2-trifluoroethylsulfonylamino)-3-methylphenyl)-3H-(1,3,4)oxadiazol-2-one]
153 | COc1nn(-c2ccc(NC(=O)C(C)(C)Oc3ccc(Cl)cc3)cc2)c(=O)o1 [Example 73, 5-Methoxy-3-(4-(2-(4-chlorophenoxy)-2-methylpropionylamino)phenyl)-3H-(1,3,4)oxadiazol-2-one]
81 | COc1nn(-c2ccc(NC(=O)Nc3ccccn3)cc2)c(=O)o1 [Example 59, 5-Methoxy-3-(4-(pyrid-2-yl)aminocarbonylaminophenyl)-3H-(1,3,4)oxadiazol-2-one]
159 | COc1nn(-c2ccc(NC(=O)c3ccc(C(F)(F)F)cc3)c(OCc3ccccc3)c2)c(=O)o1 [Example 86, 5-Methoxy-3-(3-benzyloxy-4-(4-trifluoromethylbenzoylamino)phenyl)-3H-(1,3,4)oxadiazol-2-one]
150 | COc1nn(-c2ccc(NC(=O)c3ccc(OC(F)(F)F)cc3)cc2C)c(=O)o1 [Example 66, 5-Methoxy-3-(2-methyl-4-(4-trifluoromethoxybenzoylamino)phenyl)-3H-(1,3,4)oxadiazol-2-one]

Structure (SMILES) | melting point [°C]
Cc1cc(-n2nc(OC(C)(C)C)oc2=O)ccc1NC(=O)OCc1ccccc1 [Example 78, 5-tert-Butoxy-3-(3-methyl-4-benzyloxycarbonylaminophenyl)-3H-(1,3,4)oxadiazol-2-one] | 113
